Patent publication US20250177576A1, “COMPOUNDS FOR THE MEASUREMENT OF THE OXYGEN CONCENTRATION” (Center for Neuromusculoskeletal Restorative Medicine Limited, priority 2022, published 2025)

Experiments:
Type in all cases: physicochemical
[1] = Photoluminescence spectra in dichloromethane, oxygen-free vs ambient; conditions: 10 μM in dichloromethane, excitation 500 nm
Description: (§1) Proton and carbon NMR spectra were measured in CDCl3 on a Bruker AVANCE III 400 MHz NMR Spectrometer and tetramethylsilane (TMS) was exploited as an internal standard for calibrating the chemical shift. Electrospray Ionization Quadrupole-Time-of-Flight (ESI-Q-TOF) mass spectrometry was performed on an Agilent 6540 Liquid chromatography—ESI-Q-TOF Mass Spectrometer. UV/Vis absorption spectroscopy was performed on a Molecular Devices SpectraMax M2e in different solutions at 293 K. Fluorescence emission spectra were taken from a LS-55 fluorescence spectrophotometer (PerkinElmer) at 293 K.

[2] = PL spectra in water/tetrahydrofuran binary mixtures (aggregation, AIE/ACQ)
Description: as §1
In view of the co-planar chemical structure of Pt(ttiq)(acac), it was interesting to look for any aggregation induced emission (AIE) or aggregation caused quenching (ACQ) property. […] When the water fraction further increased to or above 80%, the mixture formed clearly observable precipitates in the cuvette.
In order to observe whether these nanoaggregates were still readily quenched by oxygen, the PL spectra of the nanoaggregates' solution with a fwater of 60% was compared before and after the deaeration.

[3] = Oxygen quenching calibration (Stern-Volmer) in tetrahydrofuran; conditions: 10 μM in tetrahydrofuran
Description: The photoluminescence spectra of the Pt(ttiq)(acac) (10 μM) in tetrahydrofuran in different oxygen concentrations upon 500 nm photoexcitation is presented in FIG. 2A. The phosphorescence peak intensity (698 nm) increases while the oxygen level of the solution decreases, whereas the fluorescence (528 nm) remains independent of the oxygen level. The oxygen quenching of the phosphorescence may be interpreted using Stern-Volmer relationship, in which (I0/I=1+KSV·[O2]) where I: phosphorescence intensity; I0: phosphorescence intensity at 0% of oxygen; KSV: quencher coefficient; [O2]: oxygen concentration. The data of FIG. 2A are fitted with this relationship in FIG. 2B and thus the I0 could be estimated from the equation of (y=133.75801/(1+0.0371−x); adjusted R^2=0.98066). Therefore, a linear correlation of I0/I against [O2](y=1.10962+0.03545 x; adjusted R^2=0.99036) could be established as in FIG. 2C. Mathematically, the Stern-Volmer relationship could be further derived to (R0/R=1+KSV·[O2]) whereas the fluorescence peak intensity is a constant, and thus the R0 could be estimated from the equation of (y=2.04177/(1+0.03267−x); adjusted R^2=0.97785) in FIG. 2D. Similarly, a linear correlation of R0/R against [O2](y=1.07595+0.03165−x; adjusted R^2=0.98135) could be established as in FIG. 2E. In short, the linear correlation between the ratiometric photoluminescence signal and oxygen concentration (%) obtained from FIG. 2E may be utilized to analyze the oxygen content of a tetrahydrofuran sample without the concerns of concentration dependency and absolute intensity value.
The oxygen concentration (%) or partial pressure of solution samples were varied by O2/N2 gas-purging with a syringe needle and natural ventilation (or gradually adding sodium sulfite (Na2SO3) solution as an oxygen consuming chemical reagent). The instantaneous oxygen concentration (%) of aqueous samples (or oxygen partial pressure values of tetrahydrofuran solutions) at 293 K were measured using pre-calibrated FireSting®-GO2 oxygen meter (PyroScience) coupled with a TDIP15 temperature probe (PyroScience) and a fiber optic sensor (OXR430-OI, or OXSOLV for organic solvent measurement) (PyroScience). The photoluminescence signals of the nano-sensor solution at different oxygen concentrations (%) (or partial pressures) were then measured by the fluorescence spectrophotometer and confocal laser scanning microscope. The calibration curves were established using the signal intensity at 528 nm and 698 nm from the PL spectra, and integrated signals' intensity from customized green channel (507-609 nm) and red channel (657-740 nm) from the CLSM images.

constant PL peak (fluorescence) wavelength ([1]; disregarding oxygen content): 528 nm
maximum phosphorescence intensity wavelength ([1]; oxygen-sensitive peak): 698 nm
water fraction at which clearly observable precipitates form ([2]; water/tetrahydrofuran mixture, 10 μM): ≥ 80%
fluorescence peak wavelength ([3]; excitation 500 nm): 528 nm
phosphorescence peak wavelength ([3]; excitation 500 nm): 698 nm
SMILES: CC(=O)C=C(C)[O][Pt][c]1c(-c2nccc3ccccc23)sc2ccsc12 [Pt(ttiq)(acac)]
oxygen response of nanoaggregates ([2]; fwater 60%, before and after deaeration): still very responsive to the oxygen content
aggregation induced emission property ([2]; water fraction 0 to 70% in tetrahydrofuran, 10 μM, ambient, excitation 500 nm): AIE-active species in the region of 650-750 nm
quencher coefficient KSV from fit of PL intensity ratio (FIG. 2D) [3]: 0.03267
slope of linear correlation I0/I against [O2] (FIG. 2C) [3]: 0.03545
slope of linear correlation R0/R against [O2] (FIG. 2E calibration curve) [3]: 0.03165
quencher coefficient KSV from fit of phosphorescence intensity (FIG. 2B) ([3]; vs oxygen partial pressure): 0.0371
